How the values were obtained:
HCoV-229E 3CLpro = HCoV-229E 3CLpro (Human coronavirus 229E, UniProt P0C6X1); assay: HCoV-229E 3CLpro inhibition assay (FRET); assay type: biochemical
MERS-CoV 3CLpro = MERS-CoV 3CLpro (Middle East respiratory syndrome-related coronavirus, UniProt K9N7C7); assay: biochemical
SARS-CoV 3CLpro = SARS-CoV 3CLpro (Severe acute respiratory syndrome coronavirus, UniProt P0C6X7); assay: biochemical
SARS-CoV-2 3CLpro = SARS-CoV-2 3CLpro (Severe acute respiratory syndrome coronavirus 2, UniProt P0DTD1); assay: biochemical

Sequence of HCoV-229E 3CLpro (P0C6X1 2966-3267): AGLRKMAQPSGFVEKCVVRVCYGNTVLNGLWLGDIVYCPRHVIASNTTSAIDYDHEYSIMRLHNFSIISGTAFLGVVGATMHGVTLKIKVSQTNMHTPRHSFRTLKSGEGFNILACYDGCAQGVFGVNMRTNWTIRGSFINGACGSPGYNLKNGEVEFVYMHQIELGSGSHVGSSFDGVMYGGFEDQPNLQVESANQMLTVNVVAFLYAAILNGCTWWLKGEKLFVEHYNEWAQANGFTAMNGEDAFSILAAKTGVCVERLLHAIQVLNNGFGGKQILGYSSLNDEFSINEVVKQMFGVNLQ
Sequence of MERS-CoV 3CLpro (K9N7C7 3248-3553): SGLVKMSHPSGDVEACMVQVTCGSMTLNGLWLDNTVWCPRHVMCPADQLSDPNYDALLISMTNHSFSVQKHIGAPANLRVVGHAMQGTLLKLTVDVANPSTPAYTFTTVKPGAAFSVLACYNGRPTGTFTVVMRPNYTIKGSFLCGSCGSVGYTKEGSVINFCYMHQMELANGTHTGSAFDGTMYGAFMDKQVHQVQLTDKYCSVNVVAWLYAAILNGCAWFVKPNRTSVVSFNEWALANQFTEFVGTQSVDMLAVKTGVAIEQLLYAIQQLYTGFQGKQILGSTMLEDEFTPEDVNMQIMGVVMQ

## CC(F)(F)C(=O)N[C@H](C(=O)N1C[C@@H]2CCC[C@@H]2[C@H]1C(=O)NN(C[C@@H]1CCNC1=O)C(=O)[C@H](F)Cl)C(C)(C)C [Example 30, N-[(1S)-1-[(3S,3aS,6aR)-3-[[[(2R)-2-chloro-2-fluoro-acetyl]-[[(3S)-2-oxopyrrolidin-3-yl]methyl]amino]carbamoyl]-3,3a,4,5,6,6a-hexahydro-1H-cyclopenta[c]pyrrole-2-carbonyl]-2,2-dimethyl-propyl]-2,2-difluoro-propanamide]
HCoV-229E 3CLpro
  IC50: 49 nM
MERS-CoV 3CLpro
  IC50: 143 nM
SARS-CoV 3CLpro
  IC50: 15 nM
SARS-CoV-2 3CLpro
  IC50: 8 nM

## CC(C)(C)[C@H](NC(=O)C1CC1)C(=O)N1C[C@@H]2CCC[C@@H]2[C@H]1C(=O)NN(C[C@@H]1CCNC1=O)C(=O)[C@H](F)Cl [Example 31, N-[(1S)-1-[(3S,3aS,6aR)-3-[[[(2R)-2-chloro-2-fluoro-acetyl]-[[(3S)-2-oxopyrrolidin-3-yl]methyl]amino]carbamoyl]-3,3a,4,5,6,6a-hexahydro-1H-cyclopenta[c]pyrrole-2-carbonyl]-2,2-dimethyl-propyl]cyclopropanecarboxamide]
HCoV-229E 3CLpro
  IC50: 28 nM
MERS-CoV 3CLpro
  IC50: 76 nM
SARS-CoV 3CLpro
  IC50: 12 nM
SARS-CoV-2 3CLpro
  IC50: 8 nM

## CCC(=O)N[C@H](C(=O)N1C[C@@H]2CCC[C@@H]2[C@H]1C(=O)NN(C[C@@H]1CCNC1=O)C(=O)[C@H](F)Cl)C(C)(C)C [Example 32, N-[(1S)-1-[(3S,3aS,6aR)-3-[[[(2R)-2-chloro-2-fluoro-acetyl]-[[(3S)-2-oxopyrrolidin-3-yl]methyl]amino]carbamoyl]-3,3a,4,5,6,6a-hexahydro-1H-cyclopenta[c]pyrrole-2-carbonyl]-2,2-dimethyl-propyl]propanamide]
HCoV-229E 3CLpro
  IC50: 23 nM
MERS-CoV 3CLpro
  IC50: 80 nM
SARS-CoV 3CLpro
  IC50: 10 nM
SARS-CoV-2 3CLpro
  IC50: 7 nM

## CC(C)C(=O)N[C@H](C(=O)N1C[C@@H]2CCC[C@@H]2[C@H]1C(=O)NN(C[C@@H]1CCNC1=O)C(=O)[C@H](F)Cl)C(C)(C)C [Example 33, N-[(1S)-1-[(3S,3aS,6aR)-3-[[[(2R)-2-chloro-2-fluoro-acetyl]-[[(3S)-2-oxopyrrolidin-3-yl]methyl]amino]carbamoyl]-3,3a,4,5,6,6a-hexahydro-1H-cyclopenta[c]pyrrole-2-carbonyl]-2,2-dimethyl-propyl]-2-methyl-propanamide]
HCoV-229E 3CLpro
  IC50: 27 nM
MERS-CoV 3CLpro
  IC50: 79 nM
SARS-CoV 3CLpro
  IC50: 8 nM
SARS-CoV-2 3CLpro
  IC50: 7 nM

## CC(C)(F)C(=O)N[C@H](C(=O)N1C[C@@H]2CCC[C@@H]2[C@H]1C(=O)NN(C[C@@H]1CCNC1=O)C(=O)[C@H](F)Cl)C(C)(C)C [Example 35, N-[(1S)-1-[(3S,3aS,6aR)-3-[[[(2R)-2-chloro-2-fluoro-acetyl]-[[(3S)-2-oxopyrrolidin-3-yl]methyl]amino]carbamoyl]-3,3a,4,5,6,6a-hexahydro-1H-cyclopenta[c]pyrrole-2-carbonyl]-2,2-dimethyl-propyl]-2-fluoro-2-methyl-propanamide]
HCoV-229E 3CLpro
  IC50: 23 nM
MERS-CoV 3CLpro
  IC50: 60 nM
SARS-CoV 3CLpro
  IC50: 8 nM
SARS-CoV-2 3CLpro
  IC50: 8 nM

## CC[C@H](C)[C@H](NC(=O)C1CC1)C(=O)N1C[C@@H]2CCC[C@@H]2[C@H]1C(=O)NN(C[C@@H]1CCNC1=O)C(=O)[C@H](F)Cl [Example 37, N-[(1S,2S)-1-[(3S,3aS,6aR)-3-[[[(2R)-2-chloro-2-fluoro-acetyl]-[[(3S)-2-oxopyrrolidin-3-yl]methyl]amino]carbamoyl]-3,3a,4,5,6,6a-hexahydro-1H-cyclopenta[c]pyrrole-2-carbonyl]-2-methyl-butyl]cyclopropanecarboxamide]
HCoV-229E 3CLpro
  IC50: 29 nM
MERS-CoV 3CLpro
  IC50: 76 nM
SARS-CoV 3CLpro
  IC50: 11 nM
SARS-CoV-2 3CLpro
  IC50: 9 nM

## CCC(=O)N[C@H](C(=O)N1C[C@@H]2CCC[C@@H]2[C@H]1C(=O)NN(C[C@@H]1CCNC1=O)C(=O)[C@H](F)Cl)[C@@H](C)CC [Example 38, N-[(1S,2S)-1-[(3S,3aS,6aR)-3-[[[(2R)-2-chloro-2-fluoro-acetyl]-[[(3S)-2-oxopyrrolidin-3-yl]methyl]amino]carbamoyl]-3,3a,4,5,6,6a-hexahydro-1H-cyclopenta[c]pyrrole-2-carbonyl]-2-methyl-butyl]propanamide]
HCoV-229E 3CLpro
  IC50: 29 nM
MERS-CoV 3CLpro
  IC50: 72 nM
SARS-CoV 3CLpro
  IC50: 10 nM
SARS-CoV-2 3CLpro
  IC50: 8 nM

## CC[C@H](C)[C@H](NC(=O)C(F)F)C(=O)N1C[C@@H]2CCC[C@@H]2[C@H]1C(=O)NN(C[C@@H]1CCNC1=O)C(=O)[C@H](F)Cl [Example 39, N-[(1S,2S)-1-[(3S,3aS,6aR)-3-[[[(2R)-2-chloro-2-fluoro-acetyl]-[[(3S)-2-oxopyrrolidin-3-yl]methyl]amino]carbamoyl]-3,3a,4,5,6,6a-hexahydro-1H-cyclopenta[c]pyrrole-2-carbonyl]-2-methyl-butyl]-2,2-difluoro-acetamide]
HCoV-229E 3CLpro
  IC50: 29 nM
MERS-CoV 3CLpro
  IC50: 71 nM
SARS-CoV 3CLpro
  IC50: 11 nM
SARS-CoV-2 3CLpro
  IC50: 9 nM

## CC[C@H](C)[C@H](NC(=O)C(C)(F)F)C(=O)N1C[C@@H]2CCC[C@@H]2[C@H]1C(=O)NN(C[C@@H]1CCNC1=O)C(=O)[C@H](F)Cl [Example 40, N-[(1S,2S)-1-[(3S,3aS,6aR)-3-[[[(2R)-2-chloro-2-fluoro-acetyl]-[[(3S)-2-oxopyrrolidin-3-yl]methyl]amino]carbamoyl]-3,3a,4,5,6,6a-hexahydro-1H-cyclopenta[c]pyrrole-2-carbonyl]-2-methyl-butyl]-2,2-difluoro-propanamide]
HCoV-229E 3CLpro
  IC50: 27 nM
MERS-CoV 3CLpro
  IC50: 50 nM
SARS-CoV 3CLpro
  IC50: 13 nM
SARS-CoV-2 3CLpro
  IC50: 21 nM

## CC[C@H](C)[C@H](NC(=O)C(C)(C)F)C(=O)N1C[C@@H]2CCC[C@@H]2[C@H]1C(=O)NN(C[C@@H]1CCNC1=O)C(=O)[C@H](F)Cl [Example 42, N-[(1S,2S)-1-[(3S,3aS,6aR)-3-[[[(2R)-2-chloro-2-fluoro-acetyl]-[[(3S)-2-oxopyrrolidin-3-yl]methyl]amino]carbamoyl]-3,3a,4,5,6,6a-hexahydro-1H-cyclopenta[c]pyrrole-2-carbonyl]-2-methyl-butyl]-2-fluoro-2-methyl-propanamide]
HCoV-229E 3CLpro
  IC50: 24 nM
MERS-CoV 3CLpro
  IC50: 82 nM
SARS-CoV 3CLpro
  IC50: 9 nM
SARS-CoV-2 3CLpro
  IC50: 7 nM

## CC[C@H](C)[C@H](NC(=O)C(C)(C)C)C(=O)N1C[C@@H]2CCC[C@@H]2[C@H]1C(=O)NN(C[C@@H]1CCNC1=O)C(=O)[C@H](F)Cl [Example 44, N-[(1S,2S)-1-[(3S,3aS,6aR)-3-[[[(2R)-2-chloro-2-fluoro-acetyl]-[[(3S)-2-oxopyrrolidin-3-yl]methyl]amino]carbamoyl]-3,3a,4,5,6,6a-hexahydro-1H-cyclopenta[c]pyrrole-2-carbonyl]-2-methyl-butyl]-2,2-dimethyl-propanamide]
HCoV-229E 3CLpro
  IC50: 23 nM
MERS-CoV 3CLpro
  IC50: 55 nM
SARS-CoV 3CLpro
  IC50: 11 nM
SARS-CoV-2 3CLpro
  IC50: 8 nM

## CC[C@H](C)[C@H](NC(=O)CC(F)(F)F)C(=O)N1C[C@@H]2CCC[C@@H]2[C@H]1C(=O)NN(C[C@@H]1CCNC1=O)C(=O)[C@H](F)Cl [Example 45, N-[(1S,2S)-1-[(3S,3aS,6aR)-3-[[[(2R)-2-chloro-2-fluoro-acetyl]-[[(3S)-2-oxopyrrolidin-3-yl]methyl]amino]carbamoyl]-3,3a,4,5,6,6a-hexahydro-1H-cyclopenta[c]pyrrole-2-carbonyl]-2-methyl-butyl]-3,3,3-trifluoro-propanamide]
HCoV-229E 3CLpro
  IC50: 35 nM
MERS-CoV 3CLpro
  IC50: 104 nM
SARS-CoV 3CLpro
  IC50: 10 nM
SARS-CoV-2 3CLpro
  IC50: 19 nM

## CCCC(=O)N[C@H](C(=O)N1C[C@@H]2CCC[C@@H]2[C@H]1C(=O)NN(C[C@@H]1CCNC1=O)C(=O)[C@H](F)Cl)[C@@H](C)CC [Example 46, N-[(1S,2S)-1-[(3S,3aS,6aR)-3-[[[(2R)-2-chloro-2-fluoro-acetyl]-[[(3S)-2-oxopyrrolidin-3-yl]methyl]amino]carbamoyl]-3,3a,4,5,6,6a-hexahydro-1H-cyclopenta[c]pyrrole-2-carbonyl]-2-methyl-butyl]butanamide]
HCoV-229E 3CLpro
  IC50: 49 nM
MERS-CoV 3CLpro
  IC50: 152 nM
SARS-CoV 3CLpro
  IC50: 29 nM
SARS-CoV-2 3CLpro
  IC50: 8 nM

## CC[C@H](C)[C@H](NC(=O)C(C)C)C(=O)N1C[C@@H]2CCC[C@@H]2[C@H]1C(=O)NN(C[C@@H]1CCNC1=O)C(=O)[C@H](F)Cl [Example 47, N-[(1S,2S)-1-[(3S,3aS,6aR)-3-[[[(2R)-2-chloro-2-fluoro-acetyl]-[[(3S)-2-oxopyrrolidin-3-yl]methyl]amino]carbamoyl]-3,3a,4,5,6,6a-hexahydro-1H-cyclopenta[c]pyrrole-2-carbonyl]-2-methyl-butyl]-2-methyl-propanamide]
HCoV-229E 3CLpro
  IC50: 26 nM
MERS-CoV 3CLpro
  IC50: 76 nM
SARS-CoV 3CLpro
  IC50: 12 nM
SARS-CoV-2 3CLpro
  IC50: 7 nM

## CC[C@H](C)[C@H](NC(=O)C(F)(F)F)C(=O)N1C[C@@H]2CCC[C@@H]2[C@H]1C(=O)NN(C[C@@H]1CCNC1=O)C(=O)[C@H](F)Cl [Example 48, N-[(1S,2S)-1-[(3S,3aS,6aR)-3-[[[(2R)-2-chloro-2-fluoro-acetyl]-[[(3S)-2-oxopyrrolidin-3-yl]methyl]amino]carbamoyl]-3,3a,4,5,6,6a-hexahydro-1H-cyclopenta[c]pyrrole-2-carbonyl]-2-methyl-butyl]-2,2,2-trifluoro-acetamide]
HCoV-229E 3CLpro
  IC50: 22 nM
MERS-CoV 3CLpro
  IC50: 56 nM
SARS-CoV 3CLpro
  IC50: 12 nM
SARS-CoV-2 3CLpro
  IC50: 12 nM

## CC[C@H](C)[C@H](NC(=O)C(Cl)Cl)C(=O)N1C[C@@H]2CCC[C@@H]2[C@H]1C(=O)NN(C[C@@H]1CCNC1=O)C(=O)[C@H](F)Cl [Example 49, N-[(1S,2S)-1-[(3S,3aS,6aR)-3-[[[(2R)-2-chloro-2-fluoro-acetyl]-[[(3S)-2-oxopyrrolidin-3-yl]methyl]amino]carbamoyl]-3,3a,4,5,6,6a-hexahydro-1H-cyclopenta[c]pyrrole-2-carbonyl]-2-methyl-butyl]-2,2-dichloro-acetamide]
HCoV-229E 3CLpro
  IC50: 33 nM
MERS-CoV 3CLpro
  IC50: 96 nM
SARS-CoV 3CLpro
  IC50: 13 nM
SARS-CoV-2 3CLpro
  IC50: 7 nM

From patent US20250059171A1 (Hoffmann-La Roche Inc., priority 2021, published 2025)
